# Measured values as given in patent publication US12653896B2, “Targeted dendrimer conjugates” (Starpharma Pty Ltd, priority 2019, dated 2026).
# Experiments:
# Format in all cases: cell-based, human
# MDA-MB-231 cells [1] = assay: In vitro association study (flow cytometry, Cy5), MDA-MB-231; details: MDA-MB-231, 3.33 nM, in words
# Protocol: (§1) MDA-MB-231, MDA-MB-231/HER2 (HER2 knock in) (as described above), or SKOV-3 cells were seeded in a 24-well plate (1×10^5 cells per well) in 500 μL of appropriate growth media with the addition of 10% (v/v) fetal bovine serum (FBS) and incubated with compound 36 or 41 at 3.33 nM, […] atmosphere. After incubation, non-binding/non-associating particles were removed from adherent cells by gently washing with DPBS three times (300 μL/well). Cells were removed from plates by treatment with TrypLE™ Express Enzyme (1×), no phenol red (150 μL/well) for 5-10 min at room temperature. The plates were then placed on ice. Cellular binding and association of sample were then determined through flow cytometry by the acquisition of the signal from Cy5.
# MDA-MB-231 cells [2] = assay: Confocal cellular uptake, MDA-MB-231; details: MDA-MB-231, 3.33 nM, 24 h
# Protocol: MDA-MB-231, MDA-MB-231/HER2 and SKOV-3 cells were plated at 1.0×10^4 cells per well into μ-slide 8 well chambered coverslip (ibidi) and allowed to adhere overnight at 37° C., 5% CO2. compounds 36 and 41 (3.33 nM) were then added and allowed to incubate for 1, 3, 6 and 24 hrs. The cells were washed and then fixed with 1% paraformaldehyde for 20 min at room temperature. The cell membrane was stained with Alexa Fluor 488-wheat germ agglutinin (AF488-WGA, 5 μg mL^−1) in DPBS at room temperature for 10 min. The cell nuclei were counterstained with 4′,6-diamidino-2-phenylindole (DAPI, 2 μg mL^−1) in DPBS at room temperature for 10 min. Fluorescence images and optical sections were collected using a confocal microscope (Leica SP8). Images were processed with Fiji (Image J 1.52n).
# MDA-MB-231/HER2 cells = assay: In vitro association study (flow cytometry, Cy5), MDA-MB-231/HER2; details: MDA-MB-231/HER2, 3.33 nM
# Protocol: as §1
# SKOV-3 cells = assay: In vitro association study (flow cytometry, Cy5), SKOV-3; details: SKOV-3, 3.33 nM
# Protocol: MDA-MB-231, MDA-MB-231/HER2 (HER2 knock in) (as described above), or SKOV-3 cells were seeded in a 24-well plate (1×10^5 cells per well) in 500 μL of appropriate growth media with the addition of 10% (v/v) fetal bovine serum (FBS) and incubated with compound 36 or 41 at 3.33 nM, with incubation time varied from 1 to 24 h at 37° C. in a 5% CO2 humidified atmosphere. After incubation, non-binding/non-associating particles were removed from adherent cells by gently washing with DPBS three times (300 μL/well). Cells were removed from plates by treatment with TrypLE™ Express Enzyme (1×), no phenol red (150 μL/well) for 5-10 min at room temperature. The plates were then placed on ice. Cellular binding and association of sample were then determined through flow cytometry by the acquisition of the signal from Cy5.
substance,measurement,setting,value
(MeTzPh)PEG4CO-NHPEG24CO—[N(PN)2][Lys]8[((α-NH-Cy5)1-4(α-NH-Glu-Val-Cit-PAB-MMAE)4-7)(ε-NH-COPEG1100)8] [Compound 36],binding over 24 h,MDA-MB-231 cells [1],minimal binding
same,association with cells (confocal),MDA-MB-231 cells [2],little
same,Mean fluorescence intensity,"MDA-MB-231/HER2 cells; 24 h, 37° C.",16.05±1.89
same,binding over 24 h,MDA-MB-231/HER2 cells; in words,minimal binding
same,Mean fluorescence intensity,"SKOV-3 cells; 24 h, 37° C.",16.4±6.86
same,binding over 24 h,SKOV-3 cells; in words,minimal binding
